# Data as given in US4640930A, “Naphtho(1,8-bc)-1,5-thiazocinones” (Hoffmann-La Roche Inc., priority 1986, dated 1987).
# Counter-ions that a name gives are not always drawn.
# What was measured:
# Guinea Pig Ileum = assay: Guinea pig ileum assay: inhibition of tonic contraction (K+ challenge) of longitudinal muscle, calcium channel blocking; assay type: cell-based; conditions: Cavia porcellus; concentration inhibiting tonic contraction of muscle by 50%; 80 mM K+ challenge, 37° C., compound 2 minutes prior
# Protocol: GUINEA PIG ILEUM ASSAY Male guinea-pigs weighing from 300-400 grams were stunned and bled. The abdomen was opened and 10-15 cm of terminal ileum was carefully removed and cleaned and placed in Tyrode's Solution of the following composition: NaCl (8 g/l), KCl (0.2 g/l), MgCl2 (0.1 g/l.), CaCl2 (0.2 g/l). NaH2 PO4 (0.05 g/l), NaHCO3 (1.0 g/l) and Glucose (1 g/l). The solution was maintained at 37° C. and gassed with 95%O2 and 5%CO2. Portions of the ileum were placed over a glass rod, a shallow incision was made the length of the mesenteric attachment just severing the outer-longitudinal muscle layer. The longitudinal muscle was separated from the underlying circular muscle by gentle dissection (Rang, H. P. Annals of New York Academy of Science, vol. 144, page 756, 1964). The tissue was fixed at one end to a tissue holder, the other end was connected by a thread to a force transducer and suspended in a muscle bath containing Tyrode's Solution maintained at 37° C. and gassed with 95%O2 and 5%CO2. An initial tension of 500 mg was applied and the tissue allowed to equilibrate for 60 minutes prior to the start of the study. During this period the tissue was washed every 16 minutes. Each preparation, at 16 minute intervals, was challenged with KCl sufficient to yield a bath K^+ concentration of 80 mMK for 2 minutes, then washed with fresh solution. The 16 minute interval between K^+ challenges was maintained throughout the study. Upon stabilization of the responses to the K^+ challenge the test compound (potential calcium entry antagonist) was introduced into the bath 2 minutes prior to and during the 2 minute exposure to K^+ after which the bath was cleared and washed with fresh solution. Logarithmically increasing doses (up to 10^-4 M) of the potential antagonist were administered as the study progressed. The measure of a compound's ability to inhibit the tonic contraction of muscle is a measure of its activity as a calcium channel blocking agent.
# [1] = tested on: Spontaneously Hypertensive (SH) Rat; assay: Blood pressure lowering in the spontaneously hypertensive (SH) rat; assay type: in vivo; conditions: oral, male SH rats
# Protocol: BLOOD PRESSURE LOWERING IN THE SPONTANEOUSLY HYPERTENSIVE (SH) RAT
# Six male SH rats were used for each test. Body weights were recorded. Six pre-drug control recordings of the systolic blood pressure (mmHg) were measured from the tails of the rats which were unanesthetized and restrained in holders. The rats were previously heated for 5-10 minutes at 32°-34° C. The systolic blood pressure was measured by an occlusion cuff.
# The compounds were administered orally to the rats in a composition that included 5% compound and the remainder gum acacia. The blood pressure of the rats was measured over a period of hours following oral administration.
# The measure of a compound's ability to decrease blood pressure, is a measure of its activity as an anti-hypertensive agent.
Structure (SMILES),IC50 (Guinea Pig Ileum),"Systolic Blood Pressure in SH Rat Peak Decrease (Δ mm Hg) ([1]; unanesthetized, occlusion cuff on tail, peak decrease)",Duration of Effect on blood pressure ([1]; footnote a)
"COc1ccc([C@@H]2Sc3cccc4cccc(c34)N(CCN(C)C)C(=O)[C@@H]2O)cc1 (racemic) [OH HCl (±)-cis, (±)-cis-2,3-dihydro-5-[2-(dimethylamino)ethyl]-3-hydroxy-2-(4-methoxyphenyl)naphtho[1,8-bc]-1,5-thiazocin-4(5H)-one hydrochloride]",4.2 µM,,
"COc1ccc([C@@H]2Sc3cccc4cccc(c34)N(CCN(C)C)C(=O)[C@@H]2OC(C)=O)cc1.O=C(O)/C=C/C(=O)O [OCOCH3 fumarate (+)-cis, (+)-cis-3-(acetyloxy)-2,3-dihydro-5-[2-(dimethylamino)ethyl]-2-(4-methoxyphenyl)naphtho[1,8-bc]-1,5-thiazocin-4(5H)-one (E)-2-butenedioate]",0.25 µM,-66 ± 12 mm Hg,1 to 6 h
"COc1ccc([C@@H]2Sc3cccc4cccc(c34)N(CCN(C)C)C(=O)[C@@H]2O)cc1 [OH HCl (+)-cis, (+)-cis-2,3-dihydro-5-[2-(dimethylamino)ethyl]-3-hydroxy-2-(4-methoxyphenyl)naphtho[1,8-bc]-1,5-thiazocin-4(5H)-one hydrochloride]",3.1 µM,,

# Now from value to compound, other results behind:
IC50 (Guinea Pig Ileum),Structure (SMILES),"Systolic Blood Pressure in SH Rat Peak Decrease (Δ mm Hg) ([1]; unanesthetized, occlusion cuff on tail, peak decrease)",Duration of Effect on blood pressure ([1]; footnote a)
3 µM,"COc1ccc([C@@H]2Sc3cccc4cccc(c34)N(CCN(C)C)C(=O)[C@H]2OC(C)=O)cc1 (racemic) [OCOCH3 HCl (±)-trans, (±)-trans-3-(acetyloxy)-2,3-dihydro-5-[2-(dimethylamino)ethyl]-2-(4-methoxy-phenyl)-naphtho[1,8-bc]-1,5-thiazocin4(5H)-one hydrochloride]",,
3.9 µM,"COc1ccc([C@@H]2Sc3cccc4cccc(c34)N(CCN(C)C)C(=O)[C@@H]2OC(C)=O)cc1 (relative stereo) [OCOCH3 HCl (±)-cis, (±)-cis-3-(acetyloxy)-2,3-dihydro-5-[2-dimethylamino)ethyl]-2-(4-methoxyphenyl)naphtho[1,8-bc]-1,5-thiazocin-4(5H)-one hydrochloride]",,
